# According to paper PMC10532956, “Age and Sex-Related Differences in Teicoplanine Isoform Concentrations in SARS-CoV-2 Patients” (Life, 2023):
# Conditions: male, human, in vivo, iv
structure (smiles),measurement,value
CC(=O)N[C@H]1[C@H](O[C@@H]2c3ccc(c(Cl)c3)Oc3cc4cc(c3O)Oc3ccc(cc3Cl)C[C@H]3NC(=O)[C@H](N)c5ccc(O)c(c5)Oc5cc(O)cc(c5)[C@H](NC3=O)C(=O)N[C@H]4C(=O)N[C@H]3C(=O)N[C@@H]2C(=O)N[C@H](C(=O)O)c2cc(O)cc(O[C@H]4O[C@H](CO)[C@@H](O)[C@H](O)[C@@H]4O)c2-c2cc3ccc2O)O[C@H](CO)[C@@H](O)[C@@H]1O [A3-1],"isoform plasma concentration, median",0.18 µg/mL
